Assay results reported in patent publication US8153821B2, “Compounds” (priority 2008, dated 2012).

Legend:
CYP3A4 = CYP3A4 (Homo sapiens, UniProt P08684); type: in vitro ADME
CYP2C9 = CYP2C9 (Homo sapiens, UniProt P11712); type: in vitro ADME
Pgp brain pump = Pgp brain pump (Homo sapiens, UniProt P08183); type: in vitro ADME; conditions: not told
[1] = target: T1, human native muscle receptors (Homo sapiens, UniProt P02708+P07510+Q07001); test: Ca flux assay, TE-671 cells; type: cell-based
T1 construct: human native muscle-type nicotinic receptors (likely α1β1γδ); endogenous in cells; host or cells: TE-671 (TE671/RD)
T1 sequence (P02708 21-457): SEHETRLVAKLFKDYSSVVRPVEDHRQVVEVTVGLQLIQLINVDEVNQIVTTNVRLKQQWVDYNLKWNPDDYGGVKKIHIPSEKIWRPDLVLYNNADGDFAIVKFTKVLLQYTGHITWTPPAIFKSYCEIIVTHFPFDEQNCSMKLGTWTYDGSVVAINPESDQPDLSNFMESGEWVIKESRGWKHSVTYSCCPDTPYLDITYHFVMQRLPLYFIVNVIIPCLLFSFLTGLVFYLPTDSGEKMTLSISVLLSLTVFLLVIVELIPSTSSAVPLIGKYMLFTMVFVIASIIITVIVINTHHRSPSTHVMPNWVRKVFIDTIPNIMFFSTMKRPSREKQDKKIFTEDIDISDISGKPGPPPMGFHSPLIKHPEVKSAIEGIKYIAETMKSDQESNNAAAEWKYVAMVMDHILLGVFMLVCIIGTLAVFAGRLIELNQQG
T1 sequence (P11230 24-501 partner): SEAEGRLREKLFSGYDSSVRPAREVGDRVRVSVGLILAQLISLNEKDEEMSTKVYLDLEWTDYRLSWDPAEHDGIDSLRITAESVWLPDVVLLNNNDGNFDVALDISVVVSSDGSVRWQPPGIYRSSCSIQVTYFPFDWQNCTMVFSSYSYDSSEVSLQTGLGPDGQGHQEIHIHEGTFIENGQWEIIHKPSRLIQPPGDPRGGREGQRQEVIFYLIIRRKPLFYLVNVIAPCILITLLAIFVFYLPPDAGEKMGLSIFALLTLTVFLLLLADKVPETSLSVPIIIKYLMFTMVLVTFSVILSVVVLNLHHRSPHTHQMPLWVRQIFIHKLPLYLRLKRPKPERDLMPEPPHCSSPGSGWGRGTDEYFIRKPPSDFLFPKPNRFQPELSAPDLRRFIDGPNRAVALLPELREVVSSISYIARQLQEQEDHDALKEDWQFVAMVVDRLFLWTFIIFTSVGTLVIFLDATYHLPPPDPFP
T1 sequence (P07510 23-517): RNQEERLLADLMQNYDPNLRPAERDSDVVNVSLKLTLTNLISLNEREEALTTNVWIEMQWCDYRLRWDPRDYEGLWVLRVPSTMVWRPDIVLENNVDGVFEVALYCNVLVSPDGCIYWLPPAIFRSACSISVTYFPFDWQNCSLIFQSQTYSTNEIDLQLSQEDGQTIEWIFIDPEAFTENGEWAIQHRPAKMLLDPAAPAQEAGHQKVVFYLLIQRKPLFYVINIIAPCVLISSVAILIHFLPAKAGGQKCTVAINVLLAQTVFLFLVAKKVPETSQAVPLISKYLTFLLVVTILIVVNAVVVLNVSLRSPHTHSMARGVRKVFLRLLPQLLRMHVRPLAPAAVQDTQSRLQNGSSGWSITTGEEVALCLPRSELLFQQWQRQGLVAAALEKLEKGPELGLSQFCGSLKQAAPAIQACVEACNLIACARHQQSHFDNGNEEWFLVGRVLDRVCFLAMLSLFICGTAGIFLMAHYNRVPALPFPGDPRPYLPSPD
T1 sequence (Q07001 22-517): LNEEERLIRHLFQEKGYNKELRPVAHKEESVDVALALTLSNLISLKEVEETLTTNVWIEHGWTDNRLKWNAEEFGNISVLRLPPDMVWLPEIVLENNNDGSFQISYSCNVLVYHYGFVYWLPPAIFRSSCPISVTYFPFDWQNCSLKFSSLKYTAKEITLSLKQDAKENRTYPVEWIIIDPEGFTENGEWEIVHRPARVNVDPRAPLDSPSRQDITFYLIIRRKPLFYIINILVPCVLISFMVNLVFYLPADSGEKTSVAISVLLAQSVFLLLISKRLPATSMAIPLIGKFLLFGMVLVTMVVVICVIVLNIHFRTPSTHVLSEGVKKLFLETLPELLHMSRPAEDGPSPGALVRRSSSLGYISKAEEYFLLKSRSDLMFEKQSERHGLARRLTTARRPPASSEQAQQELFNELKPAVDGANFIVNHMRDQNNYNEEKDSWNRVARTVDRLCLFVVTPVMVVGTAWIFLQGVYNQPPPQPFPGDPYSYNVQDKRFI
Excerpt: Activation of muscle-type nAChRs was established on the human clonal line TE671/RD, which is derived from an embryonal rhabdomyosarcoma (Stratton et al., Carcinogen 10: 899 (1989)). These cells express receptors that have pharmacological (Lukas, J. Pharmacol. Exp. Ther. 251: 175 (1989)), electrophysiological (Oswald et al., Neurosci. Lett. 96: 207 (1989)), and molecular biological profiles (Luther et al., J. Neurosci. 9: 1082 (1989)) similar to the muscle-type nAChR.
(R)-3-((E)-2-(Pyrrolidin-3-yl)vinyl)-5-(tetrahydropyran-4-yloxy)pyridine or a salt thereof was tested in ganglion and muscle-type nicotinic receptor ion flux assays to examine functional selectivity.

[2] = target: T2, rat native α4β2 receptors (Rattus norvegicus, UniProt P09483+P12390); test: Radioligand binding, rat native α4β2 in rat cortical membranes
T2 construct: rat native α4β2 receptors in rat cortical membranes; from tissue; host or cells: rat cerebral cortex (female Sprague-Dawley)
T2 sequence (P09483 31-630): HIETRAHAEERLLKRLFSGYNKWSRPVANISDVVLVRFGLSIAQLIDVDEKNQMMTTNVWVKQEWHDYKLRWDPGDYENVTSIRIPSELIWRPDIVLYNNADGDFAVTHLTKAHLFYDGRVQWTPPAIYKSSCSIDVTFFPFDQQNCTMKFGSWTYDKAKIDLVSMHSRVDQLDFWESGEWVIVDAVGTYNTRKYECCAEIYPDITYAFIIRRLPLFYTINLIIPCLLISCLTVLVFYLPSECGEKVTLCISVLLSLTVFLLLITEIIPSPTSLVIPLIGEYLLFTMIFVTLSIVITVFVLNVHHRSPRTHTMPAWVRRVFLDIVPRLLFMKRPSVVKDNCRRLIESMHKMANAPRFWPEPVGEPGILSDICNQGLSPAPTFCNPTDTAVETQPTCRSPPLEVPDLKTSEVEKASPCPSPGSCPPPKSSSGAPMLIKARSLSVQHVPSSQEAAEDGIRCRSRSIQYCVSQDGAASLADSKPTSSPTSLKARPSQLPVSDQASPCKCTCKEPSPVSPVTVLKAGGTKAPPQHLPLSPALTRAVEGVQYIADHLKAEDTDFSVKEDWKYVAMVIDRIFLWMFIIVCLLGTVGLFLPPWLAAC
T2 sequence (P12390 25-500): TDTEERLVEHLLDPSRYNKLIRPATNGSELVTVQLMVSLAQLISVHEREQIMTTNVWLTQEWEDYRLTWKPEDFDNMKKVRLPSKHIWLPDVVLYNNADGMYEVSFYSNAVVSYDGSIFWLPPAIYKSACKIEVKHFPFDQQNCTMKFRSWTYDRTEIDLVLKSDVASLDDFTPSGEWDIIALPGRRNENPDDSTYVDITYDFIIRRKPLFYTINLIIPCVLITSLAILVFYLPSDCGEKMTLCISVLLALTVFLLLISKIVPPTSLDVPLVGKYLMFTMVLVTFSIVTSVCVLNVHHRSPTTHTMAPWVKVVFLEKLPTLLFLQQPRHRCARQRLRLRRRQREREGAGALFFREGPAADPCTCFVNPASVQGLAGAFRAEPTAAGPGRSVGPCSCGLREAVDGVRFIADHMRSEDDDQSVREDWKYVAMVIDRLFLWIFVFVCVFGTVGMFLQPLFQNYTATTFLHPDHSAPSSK
Procedure: Preparation of membranes from rat cortex: Rats (female, Sprague-Dawley), weighing 150-250 g, were maintained on a 12 h light/dark cycle and were allowed free access to water and food supplied by PMI Nutrition International, Inc. Animals were anesthetized with 70% CO2, and then decapitated. Brains were removed and placed on an ice-cold platform. The cerebral cortex was removed and placed in 20 volumes (weight:volume) of ice-cold preparative buffer (137 mM NaCl, 10.7 mM KCl, 5.8 mM KH2PO4, 8 mM Na2HPO4, 20 mM HEPES (free acid), 5 mM iodoacetamide, 1.6 mM EDTA, pH 7.4); PMSF, dissolved in methanol to a final concentration of 100 μM, was added and the suspension was homogenized by Polytron. […]
Assay. […] Protein concentrations were determined using a Pierce BCA Protein Assay Kit, with bovine serum albumin as the standard (Pierce Chemical Company, Rockford, Ill.).
Incubation was terminated by rapid filtration on a multi-manifold tissue harvester (Brandel, Gaithersburg, Md.) using GF/B filters presoaked in 0.33% polyethyleneimine (w/v) to reduce non-specific binding. […] Filters were then counted to determine radioactivity bound to the membranes by liquid scintillation counting (2200CA Tri-Carb LSC, Packard Instruments, 50% efficiency or Wallac Trilux 1450 MicroBeta, 40% efficiency, Perkin Elmer).
Data were expressed as disintegrations per minute (DPMs). […]

α4β2 = α4β2 (Homo sapiens, UniProt P17787+P43681); test: In vitro assay at α4β2, response compared to acetylcholine

CYP2C9, sequence (P11712 whole entry): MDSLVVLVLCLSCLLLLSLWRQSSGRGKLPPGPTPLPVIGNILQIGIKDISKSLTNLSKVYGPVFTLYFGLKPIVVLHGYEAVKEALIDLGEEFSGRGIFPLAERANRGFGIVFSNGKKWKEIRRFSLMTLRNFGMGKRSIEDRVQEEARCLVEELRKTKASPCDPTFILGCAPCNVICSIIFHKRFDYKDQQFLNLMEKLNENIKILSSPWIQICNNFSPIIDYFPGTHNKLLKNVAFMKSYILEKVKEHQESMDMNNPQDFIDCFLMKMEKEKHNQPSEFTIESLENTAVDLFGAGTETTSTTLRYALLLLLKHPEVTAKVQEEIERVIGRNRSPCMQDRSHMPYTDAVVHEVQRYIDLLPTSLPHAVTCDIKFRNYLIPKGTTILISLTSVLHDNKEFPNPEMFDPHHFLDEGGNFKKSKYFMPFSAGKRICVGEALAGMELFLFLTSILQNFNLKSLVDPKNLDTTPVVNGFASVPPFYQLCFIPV
CYP3A4, sequence (P08684 whole entry): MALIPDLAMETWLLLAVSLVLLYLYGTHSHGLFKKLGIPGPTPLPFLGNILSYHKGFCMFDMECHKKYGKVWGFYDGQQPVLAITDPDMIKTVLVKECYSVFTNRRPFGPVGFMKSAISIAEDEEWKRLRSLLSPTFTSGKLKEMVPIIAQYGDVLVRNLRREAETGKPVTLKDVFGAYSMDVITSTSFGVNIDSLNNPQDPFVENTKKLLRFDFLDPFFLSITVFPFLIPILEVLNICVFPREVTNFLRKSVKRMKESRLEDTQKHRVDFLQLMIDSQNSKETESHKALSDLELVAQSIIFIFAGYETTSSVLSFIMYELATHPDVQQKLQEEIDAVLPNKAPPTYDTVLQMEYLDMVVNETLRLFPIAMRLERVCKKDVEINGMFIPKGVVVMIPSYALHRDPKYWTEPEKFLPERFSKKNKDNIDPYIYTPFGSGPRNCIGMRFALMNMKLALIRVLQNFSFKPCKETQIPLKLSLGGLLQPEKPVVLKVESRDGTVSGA

C(=C\[C@H]1CCNC1)/c1cncc(OC2CCOCC2)c1 [Compound A, (R)-3-((E)-2-(pyrrolidin-3-yl)vinyl)-5-(tetrahydropyran-4-yloxy)pyridine]
time-dependent inhibition of CYP3A4 (CYP3A4): no evidence of time-dependent inhibition
time-dependent inhibition of CYP2C9 (CYP2C9): no evidence of time-dependent inhibition
Pgp substrate (Pgp brain pump): substrate for Pgp brain pump
EC50 [1]: 13 µM
Human (TE671/RD) muscle Emax (Ca flux) ([1]; TE-671 cells): μM, 37%
Emax ([1]; TE-671 cells, read-out: Human (TE671/RD) muscle Emax (Ca flux)): 37%
Ki [2]: 0.004 µM
response compared to acetylcholine (α4β2): twice as great
